# US4393225A, “AI-77 Compounds and pharmaceutically acceptable salts thereof” (Asahi Kasei Kogyo Kabushiki Kaisha, priority 1979, dated 1983)
# Tested on: ulcer
# Test: Anti-ulcer test (restraint and water immersion ulcer in rats, i.p.)
# Assay type: in vivo, Male Wistar rats
# Details: Rattus norvegicus, ip, read-out: % Inhibition of Ulcer
# Summary of the method: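 Compound given intraperitoneally in saline to 24 h-fasted male Wistar rats about 150 g, followed after one hour by 6 h restraint with water immersion at 21 °C. Gastric lesions graded 0, 0.5, 1, 2 or 3 on microscopic inspection and converted to percent ulcer inhibition.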
row,Compound,inhibition in vivo at 50 mg/kg
1,CCCCC(=O)NC1CC(=O)OC1C(O)C(=O)NC(CC(C)C)C1Cc2cccc(O)c2C(=O)O1 (centres unmarked) [IIIa-1-6],66%

# Same assay, conditions: Rattus norvegicus, ip; 25 mg/kg i.p.; read-out: % Inhibition of Ulcer
row,Compound,inhibition in vivo at 25 mg/kg
1,CCOc1cccc2c1C(=O)OC(C(CC(C)C)NC(=O)C(OC(=O)C(C)C)C(O)C(CC(N)=O)NC)C2 (centres unmarked) [VII-24-2],66%
2,CCCCOc1cccc2c1C(=O)OC(C(CC(C)C)NC(=O)C(O)C(O)C(CC(=O)NC)NCC)C2 (centres unmarked) [VII-14-1],72%
3,CNC(CC(N)=O)C(O)C(O)C(=O)NC(CC(C)C)C1Cc2cccc(OC)c2C(=O)O1 (centres unmarked) [VII-23-5],89%
4,CCCC(=O)Oc1cccc2c1C(=O)OC(C(CC(C)C)NC(=O)C(OC(C)=O)C(O)C(N)CC(N)=O)C2 (centres unmarked) [VII-3-2],78%
5,CCCCOc1cccc2c1C(=O)OC(C(CC(C)C)NC(=O)C(OC)C(O)C(CC(=O)NCC)NCC)C2 (centres unmarked) [VII-16-4],44%
6,CCOc1cccc2c1C(=O)OC(C(CC(C)C)NC(=O)C(OC(C)=O)C(O)C(N)CC(N)=O)C2 (centres unmarked) [VII-6-1],66%
7,CCCCNC(=O)CC(N)C(O)C(OCCC)C(=O)NC(CC(C)C)C1Cc2cccc(OCC)c2C(=O)O1 (centres unmarked) [VII-7-4],66%
8,CC(=O)N1CCC(CNC(=O)CC(N)C(O)C(O)C(=O)NC(CC(C)C)C2Cc3cccc(O)c3C(=O)O2)CC1 (centres unmarked) [VII-1-17],83%
9,CCOC(C(=O)NC(CC(C)C)C1Cc2cccc(O)c2C(=O)O1)C(O)C(N)CC(N)=O (centres unmarked) [VII-8-3],89%
10,CC(=O)NC(CC(N)=O)C(O)C(O)C(=O)NC(CC(C)C)C1Cc2cccc(O)c2C(=O)O1 (centres unmarked) [VII-28-1],78%
11,CCCCCc1ccc(CNC(=O)CC(N)C(O)C(O)C(=O)NC(CC(C)C)C2Cc3cccc(O)c3C(=O)O2)cc1 (centres unmarked) [VII-1-40],94%
12,COc1cccc2c1C(=O)OC(C(CC(C)C)NC(=O)C(O)C(O)C(N)CC(N)=O)C2 (centres unmarked) [VII-5-1],78%
13,CCOc1cccc2c1C(=O)OC(C(CC(C)C)NC(=O)C(O)C(O)C(N)CC(N)=O)C2 (centres unmarked) [VII-5-2],78%
14,CNC(CC(N)=O)C(O)C(OC)C(=O)NC(CC(C)C)C1Cc2cccc(O)c2C(=O)O1 (centres unmarked) [VII-26-1],89%
15,Cc1ccc(CCNC(=O)CC(N)C(O)C(O)C(=O)NC(CC(C)C)C2Cc3cccc(O)c3C(=O)O2)cc1 (centres unmarked) [VII-1-35],83%

# Same assay, conditions: Rattus norvegicus, ip; 50 mg/kg i.p.; read-out: % Inhibition of Ulcer
row,Compound,inhibition in vivo at 50 mg/kg
1,CCCCNC(CC(=O)O)C(O)C(O)C(=N)NC(CC(C)C)C1Cc2cccc(O)c2C(=O)O1 (centres unmarked) [Vb-10-2],100%
2,CCCCOC(C(=N)NC(CC(C)C)C1Cc2cccc(OCc3ccccc3)c2C(=O)O1)C(O)C(N)CC(=O)O (centres unmarked) [Vb-7-3],56%
3,CC(C)CC(=O)Oc1cccc2c1C(=O)OC(C(CC(C)C)NC(=O)C(O)C1C=CC(=O)O1)C2 (centres unmarked) [IVa-3-11],44%
4,CCOc1cccc2c1C(=O)OC(C(CC(C)C)NC(=O)C(OC(C)=O)C1OC(=O)CC1NC(=O)CC(C)C)C2 (centres unmarked) [IIIa-6-3],33%
5,CNC1CC(=O)OC1C(OC(=O)C(Cl)(Cl)Cl)C(=O)NC(CC(C)C)C1Cc2cccc(O)c2C(=O)O1 (centres unmarked) [IIIa-28-3],66%
6,CCCC(=O)NC1CC(=O)OC1C(OC)C(=O)NC(CC(C)C)C1Cc2cccc(OCC3CCCCO3)c2C(=O)O1 (centres unmarked) [IIIa-7-14],33%
7,CCCCCCCCCCCCCCCCCC(=O)NC1CC(=O)OC1C(OC(C)=O)C(=O)NC(CC(C)C)C1Cc2cccc(OCC)c2C(=O)O1 (centres unmarked) [IIIa-6-4],22%
8,CC(C)CC(NC(=O)C(O)C1OC(=O)CC1NC(=O)C=Cc1ccoc1)C1Cc2cccc(O)c2C(=O)O1 (centres unmarked) [IIIa-1-57],56%
9,CC(=O)n1cccc1C(=O)NC1CC(=O)OC1C(O)C(=O)NC(CC(C)C)C1Cc2cccc(O)c2C(=O)O1 (centres unmarked) [IIIa-1-28],66%
10,CCOc1cccc2c1C(=O)OC(C(CC(C)C)NC(=O)C(O)C1OC(=O)CC1NC(=O)C(C)=C(C)Br)C2 (centres unmarked) [IIIa-5-77],44%
11,COC(=O)C1CCC(C(=O)NC2CC(=O)OC2C(O)C(=O)NC(CC(C)C)C2Cc3cccc(O)c3C(=O)O2)CC1 (centres unmarked) [IIIa-1-68],66%
12,CCOc1cccc2c1C(=O)OC(C(CC(C)C)NC(=O)C(O)C1OC(=O)CC1NC(=O)CC(C)OC)C2 (centres unmarked) [IIIa-5-41],33%
13,CCOc1cccc2c1C(=O)OC(C(CC(C)C)NC(=O)C(O)C1OC(=O)CC1NC(=O)C=C(C)C)C2 (centres unmarked) [IIIa-5-78],44%
14,CC(C)CC(NC(=O)C(O)C1C=CC(=O)O1)C1Cc2cccc(OC(=O)CCC3CCCC3)c2C(=O)O1 (centres unmarked) [IVa-3-15],33%
15,CC(=O)Oc1cccc2c1C(=O)OC(C(CC(C)C)NC(=O)C(OC(C)=O)C1OC(=O)CC1NC(=O)c1ccc(OCCC(C)C)cc1)C2 (centres unmarked) [IIIa-3-9],22%
16,CCCCCCCCCCCCOc1cccc2c1C(=O)OC(C(CC(C)C)NC(=O)C(O)C1OC(=O)CC1NC(C)=O)C2 (centres unmarked) [IIIa-5-9],33%
17,CCOc1cccc2c1C(=O)OC(C(CC(C)C)NC(=O)C(O)C1OC(=O)CC1NC(=O)c1ccc3ccccc3c1)C2 (centres unmarked) [IIIa-5-17],33%
18,CCCCCCCC/C=C\CCCCCCCC(=O)NC1CC(=O)OC1C(O)C(=O)NC(CC(C)C)C1Cc2cccc(O)c2C(=O)O1 (centres unmarked) [IIIa-1-13],44%
19,CNC1CC(=O)OC1C(O)C(=O)NC(CC(C)C)C1Cc2cccc(OC)c2C(=O)O1 (centres unmarked) [IIIa-31-1],94%
20,CCNC(CC(=O)O)C(O)C(OC(C)=O)C(=N)NC(CC(C)C)C1Cc2cccc(O)c2C(=O)O1 (centres unmarked) [Vb-11-1],78%
21,CC(C)CC(NC(=O)C(O)C1OC(=O)CC1NC(=O)C1CCCCC1=O)C1Cc2cccc(O)c2C(=O)O1 (centres unmarked) [IIIa-1-33],66%
22,C#CCNC1CC(=O)OC1C(O)C(=O)NC(CC(C)C)C1Cc2cccc(O)c2C(=O)O1 (centres unmarked) [IIIa-18-46],100%
23,CCOc1cccc2c1C(=O)OC(C(CC(C)C)NC(=O)C(O)C1OC(=O)CC1NC(=O)Cc1ccc3ccccc3c1C)C2 (centres unmarked) [IIIa-5-21],33%
24,CCCC(=O)NC1CC(=O)OC1C(OC(=O)CCC)C(=O)NC(CC(C)C)C1Cc2cccc(OCc3ccco3)c2C(=O)O1 (centres unmarked) [IIIa-6-11],33%
25,Cc1ccc(COc2cccc3c2C(=O)OC(C(CC(C)C)NC(=O)C(O)C2C=CC(=O)O2)C3)cc1 (centres unmarked) [IVa-4-21],33%

row,Compound,inhibition in vivo at 50 mg/kg
1,CC(=O)Oc1cccc2c1C(=O)OC(C(CC(C)C)NC(=O)C(OC(C)=O)C1OC(=O)CC1NC(=O)CC(C)C)C2 (centres unmarked) [IIIa-3-3],33%
2,CCOc1cccc2c1C(=O)OC(C(CC(C)C)NC(=O)C(O)C1OC(=O)CC1NC(=O)Cc1ccc(C)cc1)C2 (centres unmarked) [IIIa-5-63],33%
3,CCCCCCCCCCCCCCCCCCNC1CC(=O)OC1C(O)C(=O)NC(CC(C)C)C1Cc2cccc(OC(C)=O)c2C(=O)O1 (centres unmarked) [IIIa-21-3],66%
4,CCCC(=O)NC1CC(=O)OC1C(OC(C)C)C(=O)NC(CC(C)C)C1Cc2cccc(OCc3ccccc3)c2C(=O)O1 (centres unmarked) [IIIa-7-11],33%
5,CC(C)CC(NC(=O)C(O)C1C=CC(=O)O1)C1Cc2cccc(OCc3ccco3)c2C(=O)O1 (centres unmarked) [IVa-4-13],33%
6,CCCCCSCC(=O)NC1CC(=O)OC1C(O)C(=O)NC(CC(C)C)C1Cc2cccc(O)c2C(=O)O1 (centres unmarked) [IIIa-1-45],66%
7,CCOc1cccc2c1C(=O)OC(C(CC(C)C)NC(=O)C(OC(C)=O)C1OC(=O)CC1NC)C2 (centres unmarked) [IIIa-32-1],56%
8,CC(C)CC(NC(=O)C(O)C1OC(=O)CC1NC(=O)c1cccs1)C1Cc2cccc(O)c2C(=O)O1 (centres unmarked) [IIIa-1-25],66%
9,CC(=O)Oc1cccc2c1C(=O)OC(C(CC(C)C)NC(=O)C(O)C1OC(=O)CC1NC(=O)C1CCCO1)C2 (centres unmarked) [IIIa-4-5],33%
10,CCOc1cccc2c1C(=O)OC(C(CC(C)C)NC(=O)C(O)C1OC(=O)CC1NC(=O)c1cccn1C(C)=O)C2 (centres unmarked) [IIIa-5-28],44%
11,CCCCNC1CC(=O)OC1C(OCCCC)C(=O)NC(CC(C)C)C1Cc2cccc(OC)c2C(=O)O1 (centres unmarked) [IIIa-24-10],56%
12,CCOc1cccc2c1C(=O)OC(C(CC(C)C)NC(=O)C(O)C1OC(=O)CC1NC)C2 (centres unmarked) [IIIa-31-2],94%
13,CCCCCCC(=O)Oc1cccc2c1C(=O)OC(C(CC(C)C)NC(=O)C(O)C1C=CC(=O)O1)C2 (centres unmarked) [IVa-3-6],33%
14,CCOc1cccc2c1C(=O)OC(C(CC(C)C)NC(=O)C(O)C1OC(=O)CC1NC(=O)c1nnnn1C)C2 (centres unmarked) [IIIa-5-27],44%
15,CCOc1cccc2c1C(=O)OC(C(CC(C)C)NC(=O)C(O)C1C=CC(=O)O1)C2 (centres unmarked) [IVa-4-2],44%
16,CCCCOC(C(=N)NC(CC(C)C)C1Cc2cccc(OC)c2C(=O)O1)C(O)C(N)CC(=O)O (centres unmarked) [Vb-7-1],72%
17,CCOc1cccc2c1C(=O)OC(C(CC(C)C)NC(=O)C(O)C1OC(=O)CC1NC(=O)CC(C)OC(C)=O)C2 (centres unmarked) [IIIa-5-47],33%
18,CC(C)CC(NC(=O)C(O)C1OC(=O)CC1NC(=O)C12CC3CC(CC(C3)C1)C2)C1Cc2cccc(O)c2C(=O)O1 (centres unmarked) [IIIa-1-16],56%
19,CCCC(=O)Oc1cccc2c1C(=O)OC(C(CC(C)C)NC(=N)C(OCC)C(O)C(N)CC(=O)O)C2 (centres unmarked) [Vb-9-2],66%
20,CCCCCCCCCCCCCCCCCC(=O)NC1CC(=O)OC1C(O)C(=O)NC(CC(C)C)C1Cc2cccc(O)c2C(=O)O1 (centres unmarked) [IIIa-1-11],44%
21,CCCCCCCCCCCCCCCCCC(=O)Oc1cccc2c1C(=O)OC(C(CC(C)C)NC(=N)C(O)C(O)C(N)CC(=O)O)C2 (centres unmarked) [Vb-4-2],56%
22,CC(=O)Oc1cccc2c1C(=O)OC(C(CC(C)C)NC(=O)C(OC(C)=O)C1OC(=O)CC1NC(=O)c1ccc(C)cc1)C2 (centres unmarked) [IIIa-3-8],33%
23,CC(C)CC(NC(=O)C(O)C1OC(=O)CC1N)C1Cc2cccc(OC(=O)C(Cl)(Cl)Cl)c2C(=O)O1 (centres unmarked) [IIIa-12-9],66%
24,CCOc1cccc2c1C(=O)OC(C(CC(C)C)NC(=O)C(O)C1OC(=O)CC1NCCSC)C2 (centres unmarked) [IIIa-22-39],94%
